We go through five compounds from publication PMC10458307, “New Scaffolds of Proteasome Inhibitors: Boosting Anticancer Potential by Exploiting the Synergy of In Silico and In Vitro Methodologies” (Pharmaceuticals, 2023).

Values joined by “and” are separate entries in the source; they are usually repeats but may differ in a detail not shown here. Equal entries are not always repeated.

Series [1] has as its system K562 cells. The series can be described thus: Cell viability, MTT assay, K562. The settings on record: at 100 µM, 72 h. It is filed as cell-based, human. The procedure: Whenever possible, additional concentrations were tested and IC50 values were determined.
Human leukemia Jurkat E6.1 T-cell line and K562-cell line were originally obtained from ATCC Collections (Manassas, VA, USA); human HT-29 and HCT116 colorectal carcinoma-cell lines were obtained from ECACC (Porton Down, Porton, UK). Cells were passaged for less than 6 months after and routinely tested for mycoplasma contamination using Mycoalert detection kit (Lonza, Basel, Switzerland). Jurkat, K562, and HT-29 cells were maintained in Roswell Park Memorial Institute (RPMI) 1640 with GlutaMAX™, supplemented with 1% antibiotic mixture (100 µg/mL streptomycin and 100 U/mL penicillin) and 10% heat-inactivated foetal bovine serum (FBS) (all from Gibco, Thermo Fisher Scientific, Paisley, UK). HCT116 cells were maintained in Dulbecco’s Modified Eagle Medium (DMEM) with GlutaMAX™, supplemented with 1% antibiotic mixture (100 µg/mL streptomycin and 100 U/mL penicillin) and 10% heat-inactivated FBS (all from Gibco, Thermo Fisher Scientific, Paisley, UK). Incubation was performed at 37 °C in a 5% CO2 atmosphere. Cells were routinely passaged every 2 or 3 days at 70–90% confluence; TrypLE Express (Gibco, Thermo Fisher Scientific, Paisley, UK) was used as dissociation agent for adherent cells. Trypan blue (Gibco, Thermo Fisher Scientific, Paisley, UK) was used to assess cell viability using the dye exclusion test.
To assess cell viability, the MTT assay was performed. Jurkat/K562/HT-29/HCT116 cell lines were seeded in triplicate (10,000 cells/well) in 96-well plates with 50 µL of complete medium and incubated at 37 °C, 5% CO2 for 24 h to allow the cells to adhere to the plate (in the case of adherent cells). […] Untreated cells seeded in triplicate were used as control. The blank was performed in triplicate with 100 µL of culture medium. The cells were incubated with the compounds, in triplicate, in 100 µL of total volume, at 37 °C, 5% CO2 for 72 h. […] In suspension cells (Jurkat), 25 µL of MTT were directly added to each well and, after 3 h 30 m of incubation, 100 µL of DMSO were added to solubilize the formazan crystals; in adherent cells (HT-29 and HCT116), the culture medium was removed, 25 µL of MTT were added to each well and, after 3 h 30 m of incubation, upon MTT removal, 100 µL of DMSO were added to solubilize the formazan crystals. After 15 min, the samples absorbance was measured at 570 nm and the percentage of cell viability was determined.
Background: Formazan colour is commonly taken as a measure of viable cells.

The target of series [2] is T1, 20S proteasome in K562 cell lysates, C-L activity (Homo sapiens, UniProt P28072).
T1 sequence (P28072 35-239 limits assumed): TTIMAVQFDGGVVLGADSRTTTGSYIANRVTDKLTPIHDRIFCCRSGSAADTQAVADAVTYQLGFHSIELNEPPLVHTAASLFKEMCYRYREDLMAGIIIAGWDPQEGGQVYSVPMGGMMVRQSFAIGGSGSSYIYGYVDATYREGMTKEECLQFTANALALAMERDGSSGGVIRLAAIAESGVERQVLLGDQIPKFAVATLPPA
T1 sequence (Q99436 44-277 partner): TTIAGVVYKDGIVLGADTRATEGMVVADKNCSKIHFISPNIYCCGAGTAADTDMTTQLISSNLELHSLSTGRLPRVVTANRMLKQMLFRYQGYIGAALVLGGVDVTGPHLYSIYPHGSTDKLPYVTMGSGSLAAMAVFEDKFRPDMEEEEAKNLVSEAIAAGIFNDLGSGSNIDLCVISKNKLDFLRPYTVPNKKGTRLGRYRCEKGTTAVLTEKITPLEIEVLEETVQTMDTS
Kind of series: Proteasome inhibition assay in cell lysates, K562, C-L. The settings on record: for inhibition at 10 µM: read-out: percentage of proteasome inhibition, C-L, cell lysates K562, at 10 µM; for inhibition at 100 µM: read-out: percentage of proteasome inhibition, C-L, cell lysates K562, at 100 µM.
Method: Cells were obtained from several cultured cell lines: Jurkat, K562, HT-29, and HCT116. Pellets with 20 × 10^6 cells were prepared and washed with cold sterile phosphate buffered saline (PBS), 1×, pH 7.4 (Gibco, Thermo Fisher Scientific, Paisley, UK). The preparation of the lysates from several cell lines was performed based on the methodology described by Gavioli et al. [67]. Cells were resuspended in buffer containing 50 mM TRIS-HCl pH 7.4 (Nzytech, Lisboa, Portugal), 5 mM MgCl2 (≥98% purity, Merck, Hamburg, Germany), 1 mM DTT (Merck, Hamburg, Germany), 2 mM ATP (≥98% purity, Enzo Life Sciences Inc., Farmingdale, NY, USA), and 250 mM saccharose (Merck, Hamburg, Germany). Glass beads (Merck, Hamburg, Germany) equivalent to the volume of the cell suspension were added, and the mixture was vortexed for 2 min at 4 °C. Beads and cell debris were removed using 5 min centrifugation at 1000× g and 4 °C, followed by 20 min of centrifugation at 10,000× g at 4 °C. Cell lysates containing proteasomes were resuspended in “activity buffer” [50 mM TRIS-HCl (pH 7.4), 5 mM MgCl2, 1 mM DTT, 2 mM ATP (≥98% purity, Enzo Life Sciences Inc., Farmingdale, NY, USA), and 500 µM EDTA (≥98% purity, Merck, Hamburg, Germany)]. Protein concentration was determined using the Pierce™ BCA protocol (Thermo Fisher Scientific, Rockford, IL, USA). […] DMSO was added in an equal volume as used for the untreated compounds as a way to assess/control its influence in the assay. Untreated cells were used as control. In each well of a 96-well plate, 25 µL of lysate were seeded in duplicate with 25 µL of the compound to test; in the control, 25 µL of activity buffer were added to the 25 µL of lysate. A blank (50 µL of activity buffer) was added to the wells in quadruplicate. Cell lysates, pre-treated or not with different concentrations of the test compounds, were incubated for 30 min at 37 °C. […] Stock solutions (10 mM) of each substrate were prepared in DMSO, diluted in activity buffer, and 50 µL were added to all wells (final concentration of each substrate = 100 µM), followed by an incubation at 37 °C for 60 min. Samples fluorescence was measured at an excitation wavelength of 360 nm and emission of 465 nm; the fluorescence measures were performed using the GloMax-Multi + Detection System (Promega Corp., Madison, WI, USA). Activity was evaluated in fluorescence units, after being converted to percentage of proteasome inhibition and, whenever possible, expressed as IC50 by plotting the inhibition data of each compound at different concentrations against the log of the concentration of the inhibitor, using the GraphPad Prism software version 7. At least eight different concentrations of the test compounds were used.

Series [3] has as its target T2, isolated human 20S proteasome, C-L activity (Homo sapiens, UniProt P28072).
T2 construct: human purified erythrocyte-derived 20S proteasome; purchased Enzo Life Sciences, Inc; host or cells: human erythrocytes (natural source)
The series can be described thus: Proteasome inhibition assay in isolated human 20S proteasomes (Proteasome-Glo), C-L activity. It is filed as biochemical. As to conditions: mean ± SD. The text has this:
In this assay, the peptide substrates are bound to aminoluciferin (Suc-LLVY-AML for CT-L activity, Z-nLPnLD-AML for C-L, and Z-LRR-AML for T-L), leading the cleavage of these substrates by the proteasome to the release of free aminoluciferin, which is the substrate of the buffer-contained luciferase.
To evaluate human purified erythrocyte-derived 20S proteasome inhibitory activity of the chosen compounds, the Proteasome-Glo™ 3-substrate system (Promega Corporation, Madison, WI, USA) was employed. The Proteasome-Glo™ reagents of the three proteolytic activities were prepared according to the manufacturer’s instructions, aliquoted, and stored at either −20 °C or 4 °C, avoiding freezing–thaw cycles. […] The purified 20S proteasome (Enzo Life Sciences, Inc., Farmingdale, NY, USA) was diluted in HEPES buffer 10 mM, pH 7.4, to a concentration experimentally adjusted to the signal/noise ratio obtained with each particular lot of Proteasome-Glo™ reagent, in order to have a good compromise between sensitivity and linear response. […] All assays were performed in white-walled multiwell plates (Thermo Scientific™ Sterilin™ White Microtiter™ plates, Thermo Fisher Scientific, Paisley, UK) in duplicates. The proteasome solution (25 μL) was added to each well first, then the diluted solutions of the assayed compounds (25 μL), and lastly the Proteasome-Glo™ Reagent (50 μL). […] Reagents were added to the plate well on ice, and the plate was then transferred to the plate luminometer (SpectraMax®, Molecular Devices, LLC, San Jose, CA, USA) set at 37 °C, gently mixed for 30 s, and the measurements were immediately started in kinetic mode, with data collected every 5 min for at least 60 min.
All compounds were dissolved in DMSO at a concentration of 10 mM and stored at −20 °C or 4 °C. Solutions of the test compounds were prepared at their adequate dilutions in 10 mM HEPES buffer pH 7.6 before each experiment.
To calculate the proteasome activity over time, the value of mean relative luminescence units (RLU) of blank wells at each respective time point was subtracted, and then the ratio between mean RLU of the sample and mean RLU of the positive control wells was calculated for each time point and expressed as percentage.

In series [4] the test system is proteasome C-L active site. The settings on record: literature values; ref 34 (bortezomib), 35 (ixazomib); cited from earlier work.
Series [5] deals with proteasome CT-L active site. The settings on record: literature values of known proteasome inhibitors; reference per compound; cited from earlier work.
[6] abbreviates: at 100 µM, Table 2 legend: bortezomib 10 µM.
[7] abbreviates: Table 2 legend: bortezomib 10 µM.

Consider `Cc1ccc2ccccc2c1CSc1ncnc2c1ncn2C1OC(CO)C(O)C1O` (stereo not drawn) [Compound 1], for which the “percentage of cell viability, MTT, K562” value in series [1] is listed as 18%. Also, in series [2] (setting [6]), the “percentage of proteasome inhibition, C-L, cell lysates K562” value (“percentage of proteasome inhibition, C-L” below) is on record as 28%. Further, the inhibition (usually the change of the read-out against control, counted positive when it falls) at 10 µM in series [2] was 0%. For the same compound, the inhibition at 100 µM in series [2] (setting [7]) turned out to be 28.2%.

As for `O=C1c2ccccc2C(=O)c2c(Nc3ccc(S(=O)(=O)N(CCO)CCO)cc3)ccc(O)c21` [Compound 2], in series [1], the “percentage of cell viability, MTT, K562” value came out at 86.52%. The “percentage of proteasome inhibition, C-L” value in series [2] (setting [6]) worked out at 63%. For the same compound, the inhibition at 10 µM in series [2] was determined as 0%. The inhibition at 100 µM in series [2] (setting [7]) came to 63.2%. Besides, the IC50 (usually the concentration that inhibits the measured activity by half) in series [3] turned out to be 2.42 µM.

Turning to `Cc1ccc(/C(=N/NS(=O)(=O)c2ccc([N+](=O)[O-])cc2)Sc2cc(Cl)c(C)cc2S(N)(=O)=O)cc1` [Compound 3], the “percentage of proteasome inhibition, C-L” value in series [2] (setting [6]) was 39%. Also, in series [2], the inhibition at 10 µM amounted to 14.2%. Also, in series [2] (setting [7]), the inhibition at 100 µM is 38.8%. This compound had an IC50 in series [3] of 51.1 µM.

Consider `C#CCCN1CCN(c2ccc(-n3c(=O)ccc4cnc5ccc(-c6ccc(N)nc6)cc5c43)cc2C(F)(F)F)CC1` [Compound 4, 9-(6-Aminopyridin-3-yl)-1-(4-(4-(but-3-yn-1-yl)piperazin-1-yl)-3-(trifluoromethyl)phenyl)benzo[h][1,6]naphthyridin-2(1H)-one], for which the IC50 in series [3] was found to be 41.2 µM.

For `CC(C)C[C@H](NC(=O)[C@H](Cc1ccccc1)NC(=O)c1cnccn1)B(O)O` [Bortezomib, bortezomib, reference compound], the IC50 is 0.074 µM in series [4] and 7 nM in series [5]. Also, the “percentage of proteasome inhibition, C-L” value is 94.99% in series [2] (at 10 µM); 97.19% and 97% in series [2] (setting [6]).
